ChEMBL document CHEMBL1146471, “Camptothecin and taxol: historic achievements in natural products research” (J Nat Prod, 2004)

Species on record: Homo sapiens
Experiment: Anticancer activity against human with metastatic pancreatic cancer assessed as median survival
Format: functional

CCc1c2c(nc3ccc(OC(=O)N4CCC(N5CCCCC5)CC4)cc13)-c1cc3c(c(=O)n1C2)COC(=O)[C@]3(O)CC
Survival: 10.3 months
